Assay results as given in the supplement of paper PMC10307832.

Assays:
Assay in all cases: relative viability (nuclei count vs DMSO), 5 days (fraction); higher = more cells survive
[1] = compound: C1COCCN1C2=NC(=NC3=C2OC4=C3C=CC=N4)C5=CC(=CC=C5)NC(=O)C6=CN=C(C=C6)N + C[C@]1(O)C[C@@H](c2nc(-c3ccc4ccc(-c5ccccc5)nc4c3)c3c(N)nccn32)C1 [Linsitinib] (partner 1 µM)
How it was run: (§1)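 Medians of duplicate plates are given as relative viability. That measure is the nuclei count in treated wells divided by the count in vehicle wells. Counts were taken on 4× images of lung cancer cell lines in 1536-well plates, 5 days after pin-tool dosing the day after seeding with one drug alone or a fixed anchor-drug dose plus five library-drug doses (not always all listed) in √10 steps.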

SGI-1776 + Alpelisib = compound: CN1CCC(CNc2ccc3ncc(-c4cccc(OC(F)(F)F)c4)n3n2)CC1 [SGI-1776] + Cc1nc(NC(=O)N2CCC[C@H]2C(N)=O)sc1-c1ccnc(C(C)(C)C(F)(F)F)c1 [Alpelisib] (partner 2 µM)
How it was run: as §1

[2] = compound: C1COCCN1C2=NC(=NC3=C2OC4=C3C=CC=N4)C5=CC(=CC=C5)NC(=O)C6=CN=C(C=C6)N + O=C(c1cc(Cc2n[nH]c(=O)c3ccccc23)ccc1F)N1CCN(C(=O)C2CC2)CC1 [Olaparib] (partner 8 µM)
How it was run: as §1

SGI-1776 + Dasatinib = compound: CN1CCC(CNc2ccc3ncc(-c4cccc(OC(F)(F)F)c4)n3n2)CC1 [SGI-1776] + Cc1nc(Nc2ncc(C(=O)Nc3c(C)cccc3Cl)s2)cc(N2CCN(CCO)CC2)n1 [Dasatinib] (partner 0.075 µM)
How it was run: as §1

Cell Line	relative viability ([1]; first compound 0.02 µM)	relative viability ([1]; first compound 0.06325 µM)	relative viability ([1]; first compound 0.2 µM)	relative viability ([1]; first compound 0.6325 µM)	relative viability ([1]; first compound 2 µM)	relative viability (SGI-1776 + Alpelisib; first compound 0.08 µM)	relative viability (SGI-1776 + Alpelisib; first compound 0.8 µM)	relative viability (SGI-1776 + Alpelisib; first compound 2.53 µM)	relative viability (SGI-1776 + Alpelisib; first compound 8 µM)	relative viability ([2]; first compound 0.02 µM)	relative viability ([2]; first compound 0.06325 µM)	relative viability ([2]; first compound 0.2 µM)	relative viability ([2]; first compound 0.6325 µM)	relative viability ([2]; first compound 2 µM)	relative viability (SGI-1776 + Dasatinib; first compound 0.08 µM)	relative viability (SGI-1776 + Dasatinib; first compound 0.8 µM)	relative viability (SGI-1776 + Dasatinib; first compound 2.53 µM)	relative viability (SGI-1776 + Dasatinib; first compound 8 µM)
LC-2-ad	0.836	0.866	0.837	0.826	0.589	1.06	1	0.94	0.731	0.678	0.705	0.682	0.846	0.648	0.726	0.521	0.397	0.402
NCI-H441	0.522	0.609	0.569	0.534	0.357	0.751	0.478	0.697	0.588	0.451	0.553	0.686	0.536	0.414	0.633	0.625	0.539	0.55
NCI-H1915	1.08	1.14	1.13	1.11	1.08	1.09	1.12	1.11	1.03	0.215	0.273	0.245	0.266	0.269	0.315	0.273	0.29	0.261
NCI-H1299	0.922	1.13	0.953	1	0.805	1.11	1.01	1.07	1.08	0.928	1.04	0.993	0.962	0.754				
HCC-827	0.924	0.929	0.968	1.01	0.988	1.08	0.993	1.06	0.849	0.567	0.61	0.771	0.575	0.589	0.352	0.33	0.255	0.227
EMC-BAC-2	0.815	0.83	0.749	0.762	0.491	0.741	0.703	0.802	0.723	0.483	0.484	0.472	0.476	0.445	0.361	0.284	0.314	0.288
NCI-H596	0.959	1.15	1.1	0.96	0.727	0.529	0.439	0.357	0.349	0.589	0.668	0.601	0.747	0.621	0.571	0.528	0.51	0.441
NCI-H1792	0.608	0.508	0.565	0.257	0.468	0.765	0.663	0.696	0.552	0.826	0.598	0.303	0.235	0.219	0.781	0.742	0.637	0.491
NCI-H2009	1.29	1.2	1.17	1.17	0.871	1.21	1.17	1.25	1.09	0.695	0.674	0.689	0.725	0.687	0.373	0.291	0.231	0.15
NCI-H2347	0.917	0.966	0.979	0.98	0.877	1.1	1.07	1.1	1.01	0.532	0.625	0.571	0.517	0.532	0.346	0.319	0.306	0.265
SW 900										0.981	0.945	0.743	0.804	0.655	0.542	0.387	0.56	0.301
NCI-H1563	1.22	1.32	1.22	0.901	0.884	0.928	1	0.874	0.695						0.446	0.474	0.457	0.453
NCI-H1650										0.72	0.903	0.757	0.88	0.591	0.372	0.292	0.208	0.171
Calu-6	0.943	1.14	0.975	0.9	0.527	1.01	0.955	1.23	0.628	0.685	0.68	0.604	0.528	0.467				
EBC-1	0.826	1.07	0.875	0.847	0.58	0.888	0.78	0.903	0.434	0.7	0.77	0.582	0.668	0.356				
NCI-H2342										0.472	0.46	0.402	0.391	0.4	0.364	0.326	0.289	0.301
NCI-H1703	0.412	0.567	0.747	0.757	0.381	0.367	0.312	0.299	0.165	0.335	0.447	0.372	0.308	0.222				
ChaGo-K-1										0.435	0.402	0.401	0.409	0.331	0.652	0.647	0.561	0.416
IA-LM	0.439	0.696	0.526	0.565	0.327	0.883	0.977	0.764	0.874	0.858	0.826	0.689	0.616	0.394				
HCC-44	0.616	0.846	0.711	0.606	0.331	0.88	0.876	0.733	0.571	0.94	1.06	1.02	1.08	0.918				
NCI-H1648										0.83	0.8	0.666	0.566	1.18				
NCI-H522										0.584	0.649	0.63	0.554	0.525	0.828	0.849	0.843	0.729
A549	0.59	0.636	0.6	0.455	0.283	0.787	0.701	0.852	0.394	0.39	0.353	0.311	0.243	0.239				
